2 compounds from PMC8405639, “2-Carba-lysophosphatidic acid is a novel β-lysophosphatidic acid analogue with high potential for lysophosphatidic acid receptor activation and autotaxin inhibition” (Scientific Reports, 2021) can be followed below.

In data set [1] the test system is extracellular signal-regulated kinase (ERK) phosphorylation. The experiment in a line: Western blot analysis of phosphorylated ERK in HeLa cells. The format is cell-based. The settings on record: HeLa cells preincubated with 10 µM Ki16425 for 30 min. The method, then: Figure 3 Effects of 2-carba-lysophosphatidic acid (2carbaLPA) on the phosphorylation of the extracellular signal-regulated kinase (ERK) protein. HeLa cells were preincubated with 10 µM Ki16425 for 30 min at 37 °C and then incubated with 10 µM 2carbaLPA, lysophosphatidic acid (LPA) 18:1, or vehicle for 5 min at 37 °C. Protein levels of phosphorylated ERK, total ERK, and α-tubulin were determined by western blot analysis. The full-length blots are shown in the Supplementary Fig. S2.
HeLa cells were obtained from RIKEN RBC Cell Bank (Tsukuba, Japan). […] Cells were harvested using 0.125 M Tris–HCl (pH 6.8) supplemented with 4% sodium dodecyl sulphate (SDS), 20% glycerol, 10% 2-mercaptoethanol, and 0.01% bromophenol blue. Proteins were separated by SDS–polyacrylamide gel electrophoresis, and the proteins were transferred onto an Immobilon-P Transfer Membrane (Millipore, Burlington, MA, USA). The membrane was incubated with primary antibodies: anti-phospho-ERK (pERK), anti-ERK, and anti-tubulin (all at 1:1,000 dilution, Cell Signaling Technology, Danvers, MA, USA). Next, after washing, the membrane was treated with horseradish peroxidase-conjugated anti-rabbit IgG (1:1000 dilution; Cell Signaling Technology). Immunodetection was performed using an enhanced chemiluminescence system (EzWestLumi plus, ATTO Corporation, Tokyo, Japan) and ImageQuant LAS 4000 (GE healthcare, Buckinghamshire, UK).
(In general: In western blotting, separated proteins are transferred to a membrane and probed.)

In data set [2] the target is T1, hLPA1 (Homo sapiens, UniProt Q92633).
T1 construct: expressed in transfected cells; host or cells: 293A cells
Nature of the data set: TGFα-shedding assay, LPA1. In kind it is cell-based. The conditions noted are these: 293A cells, AP-TGFα release. The method, then:
Figure 4 Agonistic activity of 2-carba-lysophosphatidic acid (2carbaLPA) and cyclic phosphatidic acid (cPA) analogues toward six lysophosphatidic acid (LPA) receptors. 293A cells expressing LPA receptors were stimulated with the indicated concentration of LPA, 2carbaLPA, and cPA analogues. Receptor-specific alkaline phosphatase-tagged transforming growth factor-α release was calculated by subtracting the responses in the empty vector-transfected cells from those in the receptor-expressing cells. Data are represented as standard error of the mean of three independent replicates.
293A cells (Life Technologies, Tokyo, Japan) were cultured in DMEM (Nissui Pharmaceutical, Tokyo, Japan) supplemented with 10% foetal calf serum (Gibco, Waltham, MA, USA) in an incubator at 37 °C and 5% CO2. This assay was conducted according to a modified version of a method described previously. To improve signal detection, cells for the analysis of LPA1, LPA2, LPA4, and LPA5 were transfected with Gα-chimeric proteins, whereas those for LPA4, LPA5, LPA6 analysis were treated with the LPA1–3 antagonist Ki16425. The cells were co-transfected with vectors-expressing human LPA1–6, alkaline phosphatase-tagged TGFα (AP-TGFα). As negative controls, cells transfected with an empty vector instead of the receptor-expressing vector were used. After 24 h, the cells were resuspended in Hank’s balanced salt solution (HBSS), seeded in 96-well plates, and stimulated with cPA analogues administered at tenfold concentration of the final concentration. The cPA analogues were diluted with HBSS, 0.01% protease and fatty acid-free BSA (SERVA Electrophoresis GmbH, Heidelberg, Germany). Cells for LPA4, LPA5, and LPA6 analysis were treated with Ki16425 (final concentration: 10 μM), 5 min before treatment with the cPA analogues. After incubation for 1 h at 37 °C, 80 µL of the supernatant was transferred to fresh 96-well plates. An equal volume of 1 mM p-NPP solution [120 mM Tris–HCl (pH 9.5), 40 mM NaCl, and 10 mM MgCl2] was added to both the supernatant and the cells. Alkaline phosphatase activity was calculated by measuring absorbance at 405 nm using the Cytation 3 plate reader (BioTek, Winooski, VT, USA).

The nature of data set [3]: cPA analogue stability in the 293A cell medium. The format is in vitro ADME. The conditions noted are these: 10 µM, 1 h, 37 °C, 293A (HEK) cell medium. The method, then:
Supplementary Figure S3. Cyclic phosphatidic acid (cPA) analogue stability in the HEK cell medium. Each cPA analogue (final concentration: 10 µM) was incubated with the HEK cell medium for 1 h at 37 °C. The remaining cPA analogue was quantified using liquid chromatography with tandem mass spectrometry (LC-QqQ) and calculated based on the percentage (%) ratio of the final concentration after incubation to the initial concentration. Data are represented as mean ± standard deviation (n = 3 samples).
293A cells were prepared in Hank’s balanced salt solution (HBSS) in 96-well plates. […] After incubation for 1 h at 37 ℃, 80 µL of the supernatant was collected and mixed with 320 µL of acidic methanol, including LPA 17:0 and cPA 17:0 (final concentration: 0.2 µM each; Avanti Polar Lipids, Alabaster, AL, USA).

As a reminder, the EC50 is the midpoint of the concentration-response curve. Read a high EC50 as a less potent agent. Usually Emax stands for the maximal effect, on the per cent scale that the assay sets.

T1 sequence (Q92633 whole entry): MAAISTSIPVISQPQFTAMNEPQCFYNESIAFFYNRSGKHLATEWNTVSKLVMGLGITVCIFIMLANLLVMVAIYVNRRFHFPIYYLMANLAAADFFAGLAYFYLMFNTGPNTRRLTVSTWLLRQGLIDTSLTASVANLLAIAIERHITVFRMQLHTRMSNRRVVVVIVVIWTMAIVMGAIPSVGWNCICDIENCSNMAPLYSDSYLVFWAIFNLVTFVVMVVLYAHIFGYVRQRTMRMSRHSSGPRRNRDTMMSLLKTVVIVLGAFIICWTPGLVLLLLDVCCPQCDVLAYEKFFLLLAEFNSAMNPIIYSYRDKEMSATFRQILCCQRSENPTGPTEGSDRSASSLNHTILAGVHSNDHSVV

As for `Cc1noc(-c2ccc(CSCCC(=O)O)cc2)c1NC(=O)OC(C)c1ccccc1Cl` (stereo not shown) [Ki16425], the “Effect on 2carbaLPA-induced ERK activation” value in data set [1] is on record as “inhibited”.
`CCCCCCCCC=CCCCCCCCC(=O)OCC(O)COP(=O)(O)O` (stereo not shown) [LPA 18:1, 1-Oleoyl-LPA]: a half-maximal effect in data set [2] (1 h) (EC50) was put at 11.4 nM. The Emax in data set [2] (read-out: Emax ± SEM hLPA1 (converted)) was 26.9%. For the same compound, the “Compound remaining after incubation” value in data set [3] was “approximately 70%”.
